Literature values, collected in US7771758B2, “Extract of mad-dog skullcap” (Tom's of Maine, priority 2002, dated 2010).

Tests used:
[1] = tested on: benzodiazepine site of the GABAA receptor; details: in vitro; flavones isolated from Scutellaria baicalensis

SMILES	ability to bind to the benzodiazepine site of the GABAA receptor [1]	intestinal absorption (in vivo)	conjugation in the plasma (plasma)	transformation by intestinal bacteria (intestinal bacteria)
COc1c(O)cc2oc(-c3ccccc3)cc(=O)c2c1O [oroxylin A]	strong affinity			
COc1c(O)cc(O)c2c(=O)cc(-c3ccccc3)oc12 [wogonin]	strong affinity			
O=c1cc(-c2ccccc2)oc2cc(O)c(O)c(O)c12 [Baicalein, baicalein]	weak ligands	readily absorbed intestinally	efficiently conjugated back to baicalin	
O=C(O)[C@H]1O[C@@H](Oc2cc3oc(-c4ccccc4)cc(=O)c3c(O)c2O)[C@H](O)[C@@H](O)[C@@H]1O [baicalin]	weak ligands			transformed to its aglycon baicalein
